Data reported in ChEMBL document CHEMBL1201862, “PubChem BioAssay data set” (2004).
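How tested: cells in 96-well plates exposed to compound for 48 hours at five concentrations. Here, GI50 denotes the concentration required for 50% inhibition of growth.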 Activity calls are given as the source filed them. No stated cut-off is given here; in the data, active = GI50 up to about 1.1 µM and inactive = higher.

Experiments:
Test in all cases: growth of human tumour cells (NCI), 48 h
786-0 = tested on: 786-0
A498 = tested on: A498
ACHN = tested on: ACHN
CAKI-1 = tested on: CAKI-1
HCC 2998 = tested on: HCC 2998
HOP-62 = tested on: HOP-62
IGROV-1 = tested on: IGROV-1
K562 = tested on: K562
KM12 = tested on: KM12
MDA-MB-435 = tested on: MDA-MB-435
MDA-N = tested on: MDA-N
NCI-H522 = tested on: NCI-H522
OVCAR-3 = tested on: OVCAR-3
OVCAR-8 = tested on: OVCAR-8
PC-3 = tested on: PC-3
SF-268 = tested on: SF-268
SF-539 = tested on: SF-539
SNB-75 = tested on: SNB-75
TK-10 = tested on: TK-10
U-251 = tested on: U-251

Measured: GI50

O=C(O)CCCc1ccc(N(CCCl)CCCl)cc1 [CHLORAMBUCIL]
inactive: 786-0 30.9 µM | A498 125 µM | ACHN 14.4 µM | CAKI-1 17.3 µM | HCC 2998 103 µM | HOP-62 36.1 µM | IGROV-1 115 µM | K562 107 µM | KM12 143 µM | MDA-MB-435 126 µM | MDA-N 117 µM | NCI-H522 28.4 µM | OVCAR-3 111 µM | OVCAR-8 83.2 µM | PC-3 99.3 µM | SF-268 34.9 µM | SF-539 22.9 µM | SNB-75 54 µM | TK-10 171 µM | U-251 42.8 µM

COc1ccc2c(c1)C1Oc3ccccc3CC1CO2 (stereo not given)
inactive: 786-0 47.4 µM | A498 34.4 µM | ACHN 60.1 µM | CAKI-1 56.8 µM | HCC 2998 19.7 µM | HOP-62 > 100 µM | IGROV-1 > 100 µM | K562 52.2 µM | KM12 37.2 µM | MDA-MB-435 47 µM | MDA-N 37.6 µM | NCI-H522 45 µM | OVCAR-3 57.7 µM | OVCAR-8 83.9 µM | PC-3 46.1 µM | SF-268 > 100 µM | SF-539 > 100 µM | SNB-75 28.4 µM | TK-10 73.1 µM | U-251 91.8 µM

CN1CCCOC(c2ccc(Cl)cc2)O1 (stereo not given)
inactive: 786-0 > 100 µM | A498 > 100 µM | ACHN > 100 µM | CAKI-1 > 100 µM | HCC 2998 > 100 µM | HOP-62 > 100 µM | IGROV-1 > 100 µM | K562 > 100 µM | KM12 > 100 µM | MDA-MB-435 > 100 µM | MDA-N > 100 µM | NCI-H522 > 100 µM | OVCAR-3 > 100 µM | OVCAR-8 > 100 µM | PC-3 > 100 µM | SF-268 > 100 µM | SF-539 > 100 µM | SNB-75 > 100 µM | TK-10 > 100 µM | U-251 > 100 µM
